Reference: patent US9657033B2, “Tetrahydronaphthyridine and related bicyclic compounds for inhibition of RORγ activity and the treatment of disease” (Merck Sharp & Dohme Corp., priority 2012, dated 2017)

Tests used:
RORγ-LBD [1] = molecular target: T1, RORγ-LBD (Homo sapiens (Human), UniProt P51449); assay: RORγ-Ligand Binding Domain (LBD) TR-FRET Assay Protocol II; type: biochemical; settings: purified RORγ-LBD, SRC1 peptide, overnight at 4° C.
Experimental: Part II—Procedures for RORγ-Ligand Binding Domain TR-FRET Assay Protocol II
HIS-tagged RORγ-LBD protein was expressed in SF9 cells using a baculovirus expression system. The RORγ-LBD protein was purified by […]. Separately, SF9 cells not expressing recombinant protein were lysed in TBS buffer (25 mM Tris, pH 8.0, 150 mM NaCl) under sonication. The lysate was added to the purified RORγ-LBD in a volume equivalent of 0.75 μL lysate (from 30,000 SF9 cells) per 75 femtomol of RORγ-LBD protein. The resulting mixture was diluted in assay buffer (50 mM Tris pH 7.0, 50 mM KCl, 1 mM EDTA, 0.1 mM DTT, 0.01% BSA) to obtain RORγ-LBD protein at a final concentration of 3 nM.
Compounds to be tested were injected to the assay plate using Acoustic Droplet Ejection technology by Echo 550 liquid handler (Labcyte, Calif.).
A stock of biotinylated-LXXLL peptide from coactivator SRC1 (Biotin-[…]) was prepared in assay buffer and added to each well (100 nM final concentration). A solution of Europium tagged anti-HIS antibody (1.25 nM final concentration) and APC-conjugated streptavidin (8 nM final concentration) were also added to each well.
The final assay mixture was incubated overnight at 4° C., and the fluorescence signal was measured on an Envision plate reader: (Excitation filter=340 nm; APC emission=665 nm; Europium emission=615 nm; dichroic mirror=D400/D630; delay time=100 μs, integration time=200 μs). The EC50 value for test compounds was calculated from the quotient of the fluorescence signal at 665 nm divided by the fluorescence signal at 615 nm

RORγ-LBD [2] = molecular target: T1, RORγ-LBD; assay: RORγ-Ligand Binding Domain (LBD) TR-FRET Assay Protocol I; type: biochemical; settings: for EC50: RORγ-LBD lysate from SF9 cells, SRC1-2 peptide; for RORγ inhibition: Protocol I, assay measuring EC50 values less than or equal to 10 μM
Experimental: Part I—Procedures for RORγ-Ligand Binding Domain TR-FRET Assay Protocol I
Recombinant,HIS-tagged RORγ-LBD was expressed in SF9 cells using a baculovirus expression system. Cells were lysed and the lysate was used as a source for RORγ-LBD for the assay. A 1:80 dilution of RORγ-LBD lysate in assay buffer (25 mM HEPES pH 7.0, 100 mM NaCl, 0.01% Tween, 0.1% BSA) was prepared and 5 μL was added to each well (RORγ-LBD final concentration ˜3 nM). Control wells received lysate from SF9 cells not expressing RORγ-LBD.
Compounds to be tested were diluted to 100× final test concentration in DMSO and further diluted to 4× final test concentration using assay buffer to provide the test compound mixture. An aliquot (5 μL) of the test compound mixture was added to each well.
A 4× stock of biotinylated-LXXLL peptide from SRC1-2 (Biotin-[…]) was prepared in assay buffer and a 5 μL aliquot added to each well (450 nM final concentration). A 4× solution of europium tagged anti-HIS antibody (2 nM final concentration) and APC conjugated streptavidin (60 nM final concentration) were prepared and a 5 μL aliquot added to each well.
The final assay mixture was incubated for 4 hours to overnight, and the fluorescence signal was measured on an Envision plate reader: (Excitation filter=340 nm; APC emission=665 nm; Europium emission=615 nm; dichroic mirror=D400/D630; delay time=100 μs, integration time=200 μs).
EC50 values for test compounds were calculated from the quotient of the fluorescence signal at 665 nm divided by the fluorescence signal at 615 nm using GraphPad Prism software

T1 sequence (P51449 269-508): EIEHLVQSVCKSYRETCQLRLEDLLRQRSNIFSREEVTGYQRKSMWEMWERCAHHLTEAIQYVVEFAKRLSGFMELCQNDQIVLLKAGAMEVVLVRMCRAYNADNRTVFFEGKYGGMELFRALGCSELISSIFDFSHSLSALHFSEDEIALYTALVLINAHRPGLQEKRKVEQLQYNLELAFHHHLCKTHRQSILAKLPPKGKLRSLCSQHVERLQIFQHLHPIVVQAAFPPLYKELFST

| EC50 (RORγ-LBD [1]) [nM] | EC50 (RORγ-LBD [2]) [nM] | SMILES | RORγ inhibition (RORγ-LBD [2]) |
| --- | --- | --- | --- |
| 25 | 1880 | O=C(Nc1cnc2cnn(S(=O)(=O)c3cccc(C(F)(F)F)c3)c2c1)c1c(F)cccc1Cl [Compound 1, 2-chloro-6-fluoro-N-[1-(3-trifluoromethylbenzenesulfonyl)-1H-pyrazolo[4,3-b]pyridin-6-yl]benzamide] |  |
|  | 50000 | O=C(Nc1cc2c(cn1)cnn2S(=O)(=O)c1ccc(F)cc1)c1c(F)cccc1F [Compound 4] | did not provide measurable RORγ inhibition |
|  | 2410 | O=C(Nc1cc2c(cn1)cnn2S(=O)(=O)c1ccc(F)cc1)c1c(Cl)cccc1C(F)(F)F [Compound 6] |  |
|  | 6440 | O=C(Nc1cc2c(cn1)cnn2S(=O)(=O)c1cccc(Cl)c1)c1c(F)cccc1Cl [Compound 7] |  |
|  | 1060 | O=C(Nc1cc2c(cn1)cnn2S(=O)(=O)c1cccc(OC(F)F)c1)c1c(F)cccc1Cl [Compound 8] |  |
|  | 3520 | CC(C)(C)c1cccc(S(=O)(=O)n2ncc3cnc(NC(=O)c4c(F)cccc4Cl)cc32)c1 [Compound 9] |  |
| 35 |  | O=C(Nc1cnc2c(c1)N(S(=O)(=O)c1cccc(C(F)(F)F)c1)C[C@@H](N1CCCC1=O)C2)c1c(Cl)cccc1Cl [Compound 81] |  |
| 10 |  | CN1CC(=O)N(C[C@H]2CN(S(=O)(=O)c3cccc(Cl)c3)c3cc(NC(=O)c4c(Cl)cccc4Cl)cnc3O2)C1=O [Compound 86, (S)-2,6-dichloro-N-(1-((3-chlorophenyl)sulfonyl)-3-((3-methyl-2,5-dioxoimidazolidin-1-yl)methyl)-2,3-dihydro-1H-pyrido[2,3-b][1,4]oxazin-7-yl)benzamide] |  |
| 10000 |  | Cc1nn(C(F)F)cc1S(=O)(=O)N1C[C@H](CO)Cc2ncc(NC(=O)[C@@H](C)C(C)(C)C)cc21 [Compound 92, (S)-N-((R)-5-((1-(difluoromethyl)-3-methyl-1H-pyrazol-4-yl)sulfonyl)-7-(hydroxymethyl)-5,6,7,8-tetrahydro-1,5-naphthyridin-3-yl)-2,3,3-trimethylbutanamide] |  |
| 4100 |  | Cc1nn(C(F)F)cc1S(=O)(=O)N1C[C@H](CN2CC[C@@H](O)C2)Cc2ncc(NC(=O)[C@@H](C)C(C)(C)C)cc21 [Compound 95, (S)-N-((S)-5-((1-(difluoromethyl)-3-methyl-1H-pyrazol-4-yl)sulfonyl)-7-(((R)-3-hydroxypyrrolidin-1-yl)methyl)-5,6,7,8-tetrahydro-1,5-naphthyridin-3-yl)-2,3,3-trimethylbutanamide] |  |
| 168 |  | Cc1nn(C(F)F)cc1S(=O)(=O)N1C[C@@H](CN2CC[C@@H](O)C2)Cc2ncc(NC(=O)[C@@H](C)C(C)(C)C)cc21 [Compound 96, (S)-N-((R)-5-((1-(difluoromethyl)-3-methyl-1H-pyrazol-4-yl)sulfonyl)-7-(((R)-3-hydroxypyrrolidin-1-yl)methyl)-5,6,7,8-tetrahydro-1,5-naphthyridin-3-yl)-2,3,3-trimethylbutanamide] |  |

Second part, the compound before the results:

| SMILES | EC50 (RORγ-LBD [1]) [nM] | EC50 (RORγ-LBD [2]) [nM] | RORγ inhibition (RORγ-LBD [2]) |
| --- | --- | --- | --- |
| O=C(Nc1cc2c(cn1)cnn2S(=O)(=O)c1ccc(F)cc1)c1c(F)cccc1Cl [Compound 2, 2-chloro-6-fluoro-N-[1-(4-fluorobenzenesulfonyl)-1H-pyrazolo-[4,3-c]pyridin-6-yl]benzamide] |  | 2400 |  |
| N#Cc1cccc(S(=O)(=O)n2ncc3ncc(NC(=O)c4c(F)cccc4Cl)cc32)c1 [Compound 3] |  | 48000 | did not provide measurable RORγ inhibition |
| O=C(Nc1cc2c(cn1)cnn2S(=O)(=O)c1ccc(F)cc1)c1c(Cl)cccc1Cl [Compound 5] |  | 2610 |  |
| O=C(Nc1cc2c(cn1)cnn2S(=O)(=O)c1cccc(C(F)(F)F)c1)c1c(F)cccc1Cl [Compound 10] | 4330 | 3620 |  |
| Cc1nn(C(F)F)cc1S(=O)(=O)n1ncc2cnc(NC(=O)c3c(F)cccc3Cl)cc21 [Compound 11] | 324 | 447 |  |
| CC1COc2ncc(NC(=O)c3c(F)cccc3Cl)cc2N1S(=O)(=O)c1ccc(F)cc1 (centres unmarked) [Compound 12, 2-chloro-6-fluoro-N-[1-(4-fluorobenzenesulfonyl)-2-methyl-2,3-dihydro-1H-pyrido[2,3-b][1,4]oxazin-7-yl]benzamide] | 66 | 250 |  |
| O=C(Nc1cnc2c(c1)N(S(=O)(=O)c1ccc(F)cc1)CCO2)c1c(F)cccc1Cl [Compound 13, 2-chloro-6-fluoro-N-[1-(4-fluorobenzenesulfonyl)-2,3-dihydro-1H-pyrido[2,3-b][1,4]oxazin-7-yl]benzamide] |  | 174 |  |
| Cc1cccc(S(=O)(=O)N2C[C@H](C)Oc3ncc(NC(=O)c4c(F)cccc4Cl)cc32)c1 [Compound 14, (S)-2-chloro-6-fluoro-N-(3-methyl-1-(m-tolylsulfonyl)-2,3-dihydro-1H-pyrido[2,3-b][1,4]oxazin-7-yl)benzamide] | 22 | 166 |  |
| CCc1cccc(S(=O)(=O)N2C[C@H](C)Oc3ncc(NC(=O)c4c(F)cccc4Cl)cc32)c1 [Compound 15, (S)-2-chloro-N-(1-((3-ethylphenyl)sulfonyl)-3-methyl-2,3-dihydro-1H-pyrido-[2,3-b][1,4]oxazin-7-yl)-6-fluorobenzamide] | 10 | 31 |  |
| CC1COc2ncc(NC(=O)c3c(Cl)cccc3C(F)(F)F)cc2N1S(=O)(=O)c1ccc(F)cc1 (centres unmarked) [Compound 19] |  | 20 |  |
| N#Cc1cccc(S(=O)(=O)N2CCOc3ncc(NC(=O)c4c(F)cccc4Cl)cc32)c1 [Compound 21] |  | 200 |  |
| O=C(Nc1cnc2c(c1)N(S(=O)(=O)c1ccc(Cl)cc1)CCO2)c1c(F)cccc1Cl [Compound 22] |  | 90 |  |
| O=C(Nc1cnc2c(c1)N(S(=O)(=O)c1ccc(F)c(F)c1)CCO2)c1c(F)cccc1Cl [Compound 23] |  | 100 |  |
| O=C(Nc1cnc2c(c1)N(S(=O)(=O)c1cccc(C(F)(F)F)c1)C[C@H](N1CCCC1=O)C2)c1c(Cl)cccc1Cl [Compound 82] | 12 |  |  |
| O=C(Nc1cnc2c(c1)N(S(=O)(=O)c1cccc(Cl)c1)C[C@H](CN1C(=O)COC1=O)O2)c1c(Cl)cccc1Cl [Compound 85] | 20 |  |  |
| CN1CCN(C[C@H]2CN(S(=O)(=O)c3cccc(Cl)c3)c3cc(NC(=O)c4c(Cl)cccc4Cl)cnc3O2)CC1=O [Compound 87, (S)-2,6-dichloro-N-(1-((3-chlorophenyl)sulfonyl)-3-((4-methyl-3-oxopiperazin-1-yl)methyl)-2,3-dihydro-1H-pyrido[2,3-b][1,4]oxazin-7-yl)benzamide] | 52 |  |  |
| CN(C)C[C@H]1CN(S(=O)(=O)c2cccc(Cl)c2)c2cc(NC(=O)c3c(Cl)cccc3Cl)cnc2O1 [Compound 88] | 42 |  |  |
| O=C(Nc1cnc2c(c1)N(S(=O)(=O)c1cccc(Cl)c1)C[C@H](CN1CC[C@@H](O)C1)O2)c1c(Cl)cccc1Cl [Compound 89] | 32 |  |  |
| O=C(Nc1cnc2c(c1)N(S(=O)(=O)c1cccc(Cl)c1)C[C@H](CN1CCOCC1)O2)c1c(Cl)cccc1Cl [Compound 90] | 30 |  |  |
| CN1CCN(C[C@H]2CN(S(=O)(=O)c3cccc(Cl)c3)c3cc(NC(=O)c4c(Cl)cccc4Cl)cnc3O2)CC1 [Compound 91] | 1330 |  |  |
| Cc1cccc(S(=O)(=O)N2CC(CO)Cc3ncc(NC(=O)c4c(Cl)cccc4Cl)cc32)c1 (centres unmarked) [Compound 94, 2,6-dichloro-N-(7-(hydroxymethyl)-5-(m-tolylsulfonyl)-5,6,7,8-tetrahydro-1,5-naphthyridin-3-yl)benzamide] | 20 |  |  |
| O=C(Nc1cnc2c(c1)N(S(=O)(=O)c1cccc(C(F)(F)F)c1)C[C@@H](N1CCOC1=O)C2)c1c(Cl)cccc1Cl [Compound 97, (S)-2,6-dichloro-N-(7-(2-oxooxazolidin-3-yl)-5-((3-(trifluoromethyl)phenyl)sulfonyl)-5,6,7,8-tetrahydro-1,5-naphthyridin-3-yl)benzamide] | 42 |  |  |
